Assays:
[1] = Toxicity: solution spread on dorsum of hands of volunteers; assay type: in vivo, human; conditions: 1% solution on dorsum of hands, 12 hours continuously
Description: The 1% solution was also spread on the dorsum of four hands of volunteers and allowed to remain continuously for 12 hours before being washed off.

deer ticks = experiment: Visualizing deer ticks under long range UV light; parameters: species or system deer tick
Text: Use as a visualizing agent for deer ticks was investigated as well. Live deer ticks were gathered from a wooded area in Westchester County, N.Y. and sprayed with a 1% solution of Calcofluor white. The ticks were placed on a white cotton sheet and exposed to long range UV light from a portable UV lamp.

P. capitis nits = experiment: Visualizing nits on human hair under UV light; conditions: hair with attached nits dipped into 1% solution for two minutes, examined wet under UV light
Text: Human hair with attached P. capitis nits obtained as a waste product after barbering were obtained and dipped into a 1% solution of calcofluor white for two minutes. The hair was removed and examined wet under UV light. […] Identification was easy, specific, and totally unambiguous.

In the case of `O=S(=O)(O)c1cc(Nc2nc(Nc3ccccc3)nc(N(CCO)CCO)n2)ccc1/C=C/c1ccc(Nc2nc(Nc3ccccc3)nc(N(CCO)CCO)n2)cc1S(=O)(=O)O` [calcofluor white], the “physical reactions such as pruritus, erythema, induration or discoloration” value [1] is reported as “did not provoke any physical reactions”, the “physical sensation on skin” value [1] is reported as “caused no physical sensation” and the “visualization of deer ticks (fluorescence) under long range UV light” value (deer ticks; live ticks sprayed with 1% solution, on white cotton sheet, portable UV lamp) is reported as “easily visualized as brightly fluorescent objects”. For the same molecule, the “fluorescence of deer ticks after subsequent spray” value (deer ticks; ticks without autofluorescence, then sprayed and exposed to ultraviolet light) was “intense fluorescence” and the “visualization of nits (fluorescence) under UV light” value (P. capitis nits) was “clearly seen as brightly fluorescent white ovoid bodies”.

From patent US6875421B2, “Method for detecting chitin-containing organisms” (Albert Einstein College of Medicine of Yeshiva University, priority 1997, dated 2005)
